In US20060263802A1 (priority 2003, published 2006):

Tests used:
Type in all cases: binding
[1] = tested on: human monoclonal antibody CRJB
[2] = tested on: human monoclonal antibody CR57
[3] = tested on: human monoclonal antibody CRJA
[4] = tested on: human monoclonal antibody CRJB; remark: listed apart in the source
[5] = tested on: human monoclonal antibody CR57; remark: listed apart in the source
[6] = tested on: human monoclonal antibody CRJA; remark: listed apart in the source

Row | Sequence | Binding of CRJB to linear peptide (PEPSCAN-ELISA signal) [1] | Binding of CR57 to linear peptide (PEPSCAN-ELISA signal) [2] | Binding of CRJA to linear peptide (PEPSCAN-ELISA signal) [3] | Binding of CRJB (10 μg/ml) to looped/cyclic peptide (PEPSCAN-ELISA signal) [4] | Binding of CR57 (10 μg/ml) to looped/cyclic peptide (PEPSCAN-ELISA signal) [5] | Binding of CRJA (10 μg/ml) to looped/cyclic peptide (PEPSCAN-ELISA signal) [6] | Binding of CRJB (10 μg/ml) to looped/cyclic peptide (PEPSCAN-ELISA) [4] | Binding of CR57 (10 μg/ml) to looped/cyclic peptide (PEPSCAN-ELISA) [5] | Binding of CRJA (10 μg/ml) to looped/cyclic peptide (PEPSCAN-ELISA) [6] | Binding of human monoclonal antibody CRJB to linear peptide (PEPSCAN-ELISA signal) [1] | Binding of human monoclonal antibody CR57 to linear peptide (PEPSCAN-ELISA signal) [2] | Binding of human monoclonal antibody CRJA to linear peptide (PEPSCAN-ELISA signal) [3] | Binding of CRJB to looped/cyclic peptide (PEPSCAN-ELISA signal) [4] | Binding of CR57 to looped/cyclic peptide (PEPSCAN-ELISA signal) [5] | Binding of CRJA to looped/cyclic peptide (PEPSCAN-ELISA signal) [6]
1 | LKVGYILAIKMNGFT | 112 | 78 | 68 | 74 | 58 | 76 | – | – | – | – | – | – | – | – | –
2 | LLESSVIPLVHPLAD | 117 | 72 | 92 | – | – | – | 76 | 93 | 91 | – | – | – | – | – | –
3 | LLQQHMELLESSVIP | 111 | 78 | 80 | – | – | – | 129 | 123 | 165 | – | – | – | – | – | –
4 | LMDGTWVAMQTSNET | 106 | 96 | 102 | – | – | – | 76 | 106 | 92 | – | – | – | – | – | –
5 | LMEADAHYKSVRTWN | 107 | 73 | 46 | – | – | – | 72 | 41 | 43 | – | – | – | – | – | –
6 | LPDVHNQVSGVDLGL | – | – | – | – | – | – | – | – | – | 154 | 104 | 97 | 118 | 116 | 98
7 | LPSKGCLRVGGRCHP | 119 | 77 | 58 | – | – | – | 85 | 80 | 52 | – | – | – | – | – | –
8 | LQQHMELLESSVIPL | 134 | 106 | 91 | – | – | – | 93 | 136 | 108 | – | – | – | – | – | –
9 | LRKLVPGFGKAYTIF | 118 | 83 | 116 | – | – | – | 105 | 92 | 87 | – | – | – | – | – | –
10 | LRLMDGTWVAMQTSN | 114 | 103 | 96 | – | – | – | 72 | 98 | 92 | – | – | – | – | – | –
11 | LRTVKTTKESLVIIS | 104 | 65 | 83 | 68 | 89 | 86 | – | – | – | – | – | – | – | – | –
12 | LRVGGRCHPHVNGVF | 143 | 104 | 104 | – | – | – | 105 | 99 | 96 | – | – | – | – | – | –
13 | LSCPNNLVVEDEGCT | 117 | 69 | 90 | 74 | 72 | 97 | – | – | – | – | – | – | – | – | –
14 | LSGFSYMELKVGYIL | 132 | 71 | 82 | 74 | 72 | 83 | – | – | – | – | – | – | – | – | –
15 | LSHLRKLVPGFGKAY | 139 | 96 | 93 | – | – | – | 123 | 121 | 93 | – | – | – | – | – | –
16 | LVHPLADPSTVFKDG | 174 | 164 | 106 | – | – | – | 116 | 133 | 108 | – | – | – | – | – | –
17 | LVIISPSVADLDPYD | 107 | 85 | 104 | 102 | 98 | 117 | – | – | – | – | – | – | – | – | –
18 | LVNLHDFRSDEIEHL | 104 | 47 | 106 | – | – | – | 23 | 1 | 93 | – | – | – | – | – | –
19 | LVPGFGKAYTIFNKT | 112 | 54 | 83 | – | – | – | 58 | 87 | 58 | – | – | – | – | – | –
20 | LVRKREECLDALESI | 130 | 86 | 107 | – | – | – | 82 | 105 | 101 | – | – | – | – | – | –
21 | LVVEDEGCTNLSGFS | 103 | 76 | 58 | 82 | 76 | 104 | – | – | – | – | – | – | – | – | –
22 | LVVEELVRKREECLD | 100 | 64 | 65 | – | – | – | 76 | 68 | 50 | – | – | – | – | – | –
23 | LYKSLKGACKLKLCG | 136 | 93 | 94 | – | – | – | 79 | 91 | 107 | – | – | – | – | – | –
24 | MAGDPRYEESLHNPY | 116 | 64 | 71 | 62 | 65 | 71 | – | – | – | – | – | – | – | – | –
25 | MDGTWVAMQTSNETK | 97 | 97 | 85 | – | – | – | 82 | 114 | 90 | – | – | – | – | – | –
26 | MEADAHYKSVRTWNE | 129 | 62 | 78 | – | – | – | 86 | 69 | 68 | – | – | – | – | – | –
27 | MELKVGYILAIKMNG | 141 | 76 | 92 | 93 | 71 | 66 | – | – | – | – | – | – | – | – | –
28 | MELLESSVIPLVHPL | 125 | 90 | 83 | – | – | – | 100 | 115 | 94 | – | – | – | – | – | –
29 | MNGFTCTGVVTEAEN | 99 | 69 | 87 | 118 | 85 | 78 | – | – | – | – | – | – | – | – | –
30 | MPENPRLGMSCDIFT | 121 | 105 | 107 | 87 | 107 | 111 | – | – | – | – | – | – | – | – | –
